As usually defined, the IC50 is the point on the concentration scale where inhibition reaches its midpoint. The low end stands for inhibition by little substance, the high end for a need for much substance.

This assay deals with C-Raf FL (full length CRAF with Y340E and Y341E activating mutations, co-expressed with h14-3-3 zeta) (Homo sapiens (Human), UniProt P04049, Y340E/Y341E). The assay can be described thus: In vitro Raf activity determination, AlphaScreen p-MEK readout, c-Raf (C-Raf FL). It is filed as biochemical. The following applies: c-Raf approximately 4 nM, ATP 1 μM, pre-incubation 60 minutes, reaction 1 hour. In outline:
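Full-length C-Raf (~4 nM) pre-incubated 60 min at room temperature with compound and kinase-dead biotinylated MEK1 (~10 nM) in Tris pH 7.5, 15 mM MgCl2, BSA, DTT. Reaction started with 1 μM ATP and run 1 h at room temperature. Phospho-MEK detected by AlphaScreen with anti-p-MEK antibody.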
Background: In Alpha technology, singlet oxygen from a donor bead excites a nearby acceptor bead.

C-Raf FL (full length CRAF with Y340E and Y341E activating mutations, co-expressed with h14-3-3 zeta), sequence (P04049 whole entry Y340E/Y341E): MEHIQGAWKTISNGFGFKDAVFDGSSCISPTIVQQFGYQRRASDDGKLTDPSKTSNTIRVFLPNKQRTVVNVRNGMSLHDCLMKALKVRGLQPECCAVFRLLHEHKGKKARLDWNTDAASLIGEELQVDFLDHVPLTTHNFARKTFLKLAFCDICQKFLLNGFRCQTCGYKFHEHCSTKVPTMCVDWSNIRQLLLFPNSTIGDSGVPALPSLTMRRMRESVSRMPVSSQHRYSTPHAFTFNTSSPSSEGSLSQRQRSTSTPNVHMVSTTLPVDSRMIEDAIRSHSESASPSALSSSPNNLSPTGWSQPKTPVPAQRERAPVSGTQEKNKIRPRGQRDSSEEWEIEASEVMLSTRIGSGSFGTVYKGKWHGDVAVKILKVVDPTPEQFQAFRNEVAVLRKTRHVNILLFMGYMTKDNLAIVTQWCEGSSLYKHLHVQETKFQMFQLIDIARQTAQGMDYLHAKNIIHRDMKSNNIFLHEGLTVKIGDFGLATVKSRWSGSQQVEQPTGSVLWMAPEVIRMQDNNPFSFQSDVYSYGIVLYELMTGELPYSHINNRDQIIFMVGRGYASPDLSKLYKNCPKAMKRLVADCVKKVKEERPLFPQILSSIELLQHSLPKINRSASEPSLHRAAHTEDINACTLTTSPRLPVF
C-Raf FL (full length CRAF with Y340E and Y341E activating mutations, co-expressed with h14-3-3 zeta), sequence (P63104 whole entry partner): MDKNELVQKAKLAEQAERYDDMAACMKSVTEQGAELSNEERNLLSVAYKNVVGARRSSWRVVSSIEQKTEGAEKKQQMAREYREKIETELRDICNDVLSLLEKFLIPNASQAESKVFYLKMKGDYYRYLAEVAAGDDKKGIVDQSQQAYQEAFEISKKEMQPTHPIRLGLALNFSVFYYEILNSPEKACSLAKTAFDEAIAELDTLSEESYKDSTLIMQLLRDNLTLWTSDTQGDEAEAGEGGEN

For `Cc1ccc(NC(=O)c2ccnc(C(F)(F)F)c2)cc1-c1ccc2c(c1)N1CCOC[C@H]1[C@](F)(CO)C2` [Example 382, N-(3-((4aS,5S)-5-fluoro-5-(hydroxymethyl)-1,2,4,4a,5,6-hexahydro-[1,4]oxazino[4,3-a]quinolin-9-yl)-4-methylphenyl)-2-(trifluoromethyl)isonicotinamide], the IC50 worked out at 0.2 nM.

Compound `Cc1ncc(NC(=O)c2cccc(C(F)(F)F)c2)cc1-c1ccc2c(c1)N1CCOC[C@H]1[C@](F)(CO)C2` [Example 383, N-(5-((4aS,5S)-5-fluoro-5-(hydroxymethyl)-1,2,4,4a,5,6-hexahydro-[1,4]oxazino[4,3-a]quinolin-9-yl)-6-methylpyridin-3-yl)-3(trifluoromethyl)benzamide] registered an IC50 of 1 nM.

In the case of `Cc1ccc(NC(=O)c2cnnc(C(F)(F)F)c2)cc1-c1ccc2c(c1)N1CCOC[C@H]1[C@](F)(CO)C2` [Example 384, N-(3-((4aS,5S)-5-fluoro-5-(hydroxymethyl)-1,2,4,4a,5,6-hexahydro-[1,4]oxazino[4,3-a]quinolin-9-yl)-4-methylphenyl)-6-(trifluoromethyl)pyridazine-4-carboxamide], the IC50 was determined as 0.2 nM.

As for `Cc1ccc(NC(=O)c2ccnc(C(F)(F)F)c2F)cc1-c1ccc2c(c1)N1CCOC[C@H]1[C@](F)(CO)C2` [Example 385, 3-fluoro-N-(3-((4aS,5S)-5-fluoro-5-(hydroxymethyl)-1,2,4,4a,5,6-hexahydro-[1,4]oxazino[4,3-a]quinolin-9-yl)-4-methylphenyl)-2-(trifluoromethyl)isonicotinamide], the IC50 came out at 0.6 nM.

`Cc1ccc(NC(=O)c2ccnc(C(C)(C)F)c2)cc1-c1ccc2c(c1)N1CCOC[C@H]1[C@](F)(CO)C2` [Example 386, N-(3-((4aS,5S)-5-fluoro-5-(hydroxymethyl)-1,2,4,4a,5,6-hexahydro-[1,4]oxazino[4,3-a]quinolin-9-yl)-4-methylphenyl)-2-(2-fluoropropan-2-yl)isonicotinamide] yielded an IC50 of 0.3 nM. This IC50 lies about 2-fold lower than the previous one.

In the case of `Cc1ccc(NC(=O)c2cncc(C(F)(F)F)c2)cc1-c1ccc2c(c1)N1CCOC[C@H]1[C@](F)(CO)C2` [Example 387, N-(3-((4aS,5S)-5-fluoro-5-(hydroxymethyl)-1,2,4,4a,5,6-hexahydro-[1,4]oxazino[4,3-a]quinolin-9-yl)-4-methylphenyl)-5-(trifluoromethyl)nicotinamide], it took 0.3 nM to reach half-maximal inhibition (IC50).

For `Cc1ccc(NC(=O)c2cc(N)nc(C(F)(F)F)c2)cc1-c1ccc2c(c1)N1CCOC[C@H]1[C@](F)(CO)C2` [Example 390, 2-amino-N-(3-((4aS,5S)-5-fluoro-5-(hydroxymethyl)-1,2,4,4a,5,6-hexahydro-[1,4]oxazino[4,3-a]quinolin-9-yl)-4-methylphenyl)-6-(trifluoromethyl)isonicotinamide], half-maximal inhibition (IC50) was put at 1.7 nM.

Turning to `Cc1ccc(NC(=O)c2cc(Cl)nc(C(F)(F)F)c2)cc1-c1ccc2c(c1)N1CCOC[C@H]1[C@](F)(CO)C2` [Example 391, 2-chloro-N-(3-((4aS,5S)-5-fluoro-5-(hydroxymethyl)-1,2,4,4a,5,6-hexahydro-[1,4]oxazino[4,3-a]quinolin-9-yl)-4-methylphenyl)-6-(trifluoromethyl)isonicotinamide], it took 6.8 nM to reach half-maximal inhibition (IC50). Against the preceding compound, the IC50 is about 4-fold higher.

As to `Cc1ccc(NC(=O)c2cc(C(C)(C)N)cc(C(F)(F)F)c2)cc1-c1ccc2c(c1)N1CCOC[C@H]1[C@](F)(CO)C2` [Example 392, 3-(2-aminopropan-2-yl)-N-(3-((4aS,5S)-5-fluoro-5-(hydroxymethyl)-1,2,4,4a.5,6-hexahydro-[1,4]oxazino[4,3-a]quinolin-9-yl)-4-methylphenyl)-5-(trifluoromethyl)benzamide], it took 3.4 nM to reach half-maximal inhibition (IC50).

The compound `Cc1ccc(NC(=O)c2cncc(C(F)(F)F)c2)cc1-c1ccc2c(c1)N1CCOC[C@H]1[C@](F)(CO)C2` [Example 393, N-(3-((4aS,5S)-5-fluoro-5-(hydroxymethyl)-1,2,4,4a,5,6-hexahydro-[1,4]oxazino[4,3-a]quinolin-9-yl)-4-methylphenyl)-5-(trifluoromethyl)nicotinamide] came in with an IC50 of 0.1 nM. Compared with the last compound, the IC50 is about 34-fold lower.

The compound `Cc1ncc(NC(=O)c2cccc(C(F)(F)F)c2)cc1-c1ccc2c(c1)N1CCOC[C@H]1[C@@](F)(CO)C2` [Example 394, N-(5-((4aS,5R)-5-fluoro-5-(hydroxymethyl)-1,2,4,4a,5,6-hexahydro-[1,4]oxazino[4,3-a]quinolin-9-yl)-6-methylpyridin-3-yl)-3-(trifluoromethyl)benzamide] gave an IC50 of 0.3 nM. This IC50 lies about 3-fold higher than the previous one.

In the case of `Cc1ccc(NC(=O)c2ccnc(C(F)(F)F)c2F)cc1-c1ccc2c(c1)N1CCOC[C@H]1[C@@](F)(CO)C2` [Example 395, 3-fluoro-N-(3-((4aS,5R)-5-fluoro-5-(hydroxymethyl)-1,2,4,4a,5,6-hexahydro-[1,4]oxazino[4,3-a]quinolin-9-yl)-4-methylphenyl)-2-(trifluoromethyl)isonicotinamide], inhibition was half-maximal at 0.2 nM (IC50).

For `Cc1ccc(NC(=O)c2ccnc(C(F)(F)F)c2)cc1-c1ccc2c(c1)N1CCOC[C@H]1[C@@](F)(CO)C2` [Example 396, N-(3-((4aS,5R)-5-fluoro-5-(hydroxymethyl)-1,2,4,4a,5,6-hexahydro-[1,4]oxazino[4,3-a]quinolin-9-yl)-4-methylphenyl)-2-(trifluoromethyl)isonicotinamide], inhibition was half-maximal at 0.2 nM (IC50).

As for `Cc1ccc(NC(=O)c2ccnc(C(F)(F)F)c2)cc1-c1ccc2c(c1)N1CCOC[C@@H]1[C@](F)(CO)C2` [Example 399, N-(3-((4aR,5S)-5-fluoro-5-(hydroxymethyl)-1,2,4,4a,5,6-hexahydro-[1,4]oxazino[4,3-a]quinolin-9-yl)-4-methylphenyl)-2-(trifluoromethyl)isonicotinamide], half-maximal inhibition (IC50) required 0.3 nM.

`Cc1ccc(NC(=O)c2ccnc(C(C)(C)F)c2)cc1-c1ccc2c(c1)N1CCOC[C@@H]1[C@](F)(CO)C2` [Example 400, N-(3-((4aR,5S)-5-fluoro-5-(hydroxymethyl)-1,2,4,4a,5,6-hexahydro-[1,4]oxazino[4,3-a]quinolin-9-yl)-4-methylphenyl)-2-(2-fluoropropan-2-yl)isonicotinamide] came in with an IC50 of 0.1 nM.

Compound `Cc1ccc(NC(=O)c2ccnc(C(C)(C)C#N)c2)cc1-c1ccc2c(c1)N1CCOC[C@@H]1[C@](F)(CO)C2` [Example 401, 2-(2-cyanopropan-2-yl)-N-(3-((4aR,5S)-5-fluoro-5-(hydroxymethyl)-1,2,4,4a,5,6-hexahydro-[1,4]oxazino[4,3-a]quinolin-9-yl)-4-methylphenyl)isonicotinamide] displayed a half-inhibitory concentration (IC50) of 0.3 nM. This IC50 lies about 3-fold higher than the previous one.

On to `Cc1ccc(NC(=O)c2cnnc(C(F)(F)F)c2)cc1-c1ccc2c(c1)N1CCOC[C@@H]1[C@](F)(CO)C2` [Example 403, N-(3-((4aR,5S)-5-fluoro-5-(hydroxymethyl)-1,2,4,4a,5,6-hexahydro-[1,4]oxazino[4,3-a]quinolin-9-yl)-4-methylphenyl)-6-(trifluoromethyl)pyridazine-4-carboxamide], for which the IC50 was determined as 0.1 nM.

In turn, `Cc1ncc(NC(=O)c2cccc(C(F)(F)F)c2)cc1-c1ccc2c(c1)N1CCOC[C@@H]1[C@@](CO)(CF)C2` [Example 406, N-(5-((4aS,5S)-5-(fluoromethyl)-5-(hydroxymethyl)-1,2,4,4a,5,6-hexahydro-[1,4]oxazino[4,3-a]quinolin-9-yl)-6-methylpyridin-3-yl)-3-(trifluoromethyl)benzamide] gave an IC50 of 0.4 nM.

Regarding `Cc1ccc(NC(=O)c2ccnc(C(C)(F)F)c2)cc1-c1ccc2c(c1)N1CCOC[C@@H]1[C@@](CO)(CF)C2` [Example 407, 2-(1,1-difluoroethyl)-N-(3-((4aS,5S)-5-(fluoromethyl)-5-(hydroxymethyl)-1,2,4,4a,5,6-hexahydro-[1,4]oxazino[4,3-a]quinolin-9-yl)-4-methylphenyl)isonicotinamide], the concentration for half-maximal inhibition (IC50) came out at 0.1 nM.

`Cc1ccc(NC(=O)c2ccnc(C(F)(F)F)c2)cc1-c1ccc2c(c1)N1CCOC[C@H]1[C@](CO)(CF)C2` [Example 408, N-(3-((4aR,5R)-5-(fluoromethyl)-5-(hydroxymethyl)-1,2,4,4a,5,6-hexahydro-[1,4]oxazino[4,3-a]quinolin-9-yl)-4-methylphenyl)-2-(trifluoromethyl)isonicotinamide] yielded an IC50 of 0.7 nM.

As for `Cc1ncc(NC(=O)c2cccc(C(F)(F)F)c2)cc1-c1ccc2c(c1)N1CCOC[C@H]1[C@](CO)(CF)C2` [Example 409, N-(5-((4aR,5R)-5-(fluoromethyl)-5-(hydroxymethyl)-1,2,4,4a,5,6-hexahydro-[1,4]oxazino[4,3-a]quinolin-9-yl)-6-methylpyridin-3-yl)-3-(trifluoromethyl)benzamide], the IC50 came out at 0.4 nM.

Regarding `Cc1ccc(NC(=O)c2ccnc(C(C)(F)F)c2)cc1-c1ccc2c(c1)N1CCOC[C@H]1[C@](CO)(CF)C2` [Example 410, 2-(1,1-difluoroethyl)-N-(3-((4aR,5R)-5-(fluoromethyl)-5-(hydroxymethyl)-1,2,4,4a,5,6-hexahydro-[1,4]oxazino[4,3-a]quinolin-9-yl)-4-methylphenyl)isonicotinamide], the IC50 is 0.5 nM.

`Cc1ccc(NC(=O)c2ccnc(C(C)(F)F)c2)cc1-c1cc2n(c(=O)c1)CC[C@H]1COCCN21` [Example 411, (S)-2-(1,1-difluoroethyl)-N-(4-methyl-3-(8-oxo-1,2,4,4a,5,6-hexahydro-8H-pyrido[2′,1′:2,3]pyrimido[6,1-c][1,4]oxazin-10-yl)phenyl)isonicotinamide] had an IC50 of 0.2 nM.

`Cc1ccc(NC(=O)c2ccnc(C(C)(F)F)c2)cc1-c1cc2n(c(=O)c1)CC[C@@H]1COCCN21` [Example 413, (R)-2-(1,1-difluoroethyl)-N-(4-methyl-3-(8-oxo-1,2,4,4a,5,6-hexahydro-8H-pyrido[2′,1′:2,3]pyrimido[6,1-c][1,4]oxazin-10-yl)phenyl)isonicotinamide] returned an IC50 of 0.2 nM.

The values are drawn from US10377770B2 (Novartis AG, priority 2015, dated 2019).
